Results taken from US8530507B2, “Use of levo-ornidazole in the preparation of anti-anaerobic bacteria infection drugs” (priority 2005, dated 2013).
Converted amounts (≈) assume the structure as drawn.

Key:
Kunming mice [1] = assay: Acute toxicology test, LD50 in mice (Bliss method); format: in vivo; settings: oral gavage; for Number of dead animals: 10 animals
mice [2] = assay: Effect on the hypnotic effect induced by sodium thiopental in mice; settings: 40 mg/kg sodium thiopental i.p. 30 minutes later
Procedure: The same volume of 0.9% sodium chloride injection containing propylene glycol was administered in the vehicle control group. 30 minute after drug administration, 40 mg/kg of sodium thiopental was administered to mice by intraperitoneal injection. The time for the loss of righting reflex and the time for the recovery were recorded. The injection volume was 0.2 ml/10 g, the administration rate was 0.2 ml/10 sec.

Kunming mice [3] = assay: Acute toxicology test, LD50 in mice (Bliss method); format: in vivo; settings: for LD50: observed 14 days; for Number of dead animals: 10 animals
Procedure: Kunming mice, half males and half females, with body weights of 18˜22 g, were administered the testing drug solution by injection 8 hours after fasting. The death status of animals was consecutively observed for 14 days after administration.

mice [4] = assay: Effect on the coordination of balancing in mice; format: in vivo; settings: intravenous injection
Procedure: Experiments were conducted in 9 administration groups, L-, D- and racemic ornidazole were administered to them at doses of 40, 80 and 160 mg/kg. Positive control group received chlorpromazine at a dose of 3 mg/kg.

Veillonella = assay: In vitro MIC determination, clinical anaerobic strains; format: cell-based; settings: 23 clinical strains, GAM broth, 72 hours anaerobic incubation at 35° C.
Procedure: (§1) Experimental strains: isolated from clinical specimens, and species identification were conducted.
(§2) Bacilli preparation: 4˜5 bacteria colonies with same pattern selected from anaerobic GAM plate were inoculated in GAM broth with inoculating loop. The bacteria was incubated at 35° C. under anaerobic condition until a slight turbidity was attained, and adjusted by means of sterilized saline (deoxygenated) so as to attain a turbidity equivalent to the No. 0.5 McFarland turbidity tube, then diluted with GAM broth (at 1:200) for later use.
(§3) MIC (Minimum Inhibitory Concentration) determination: the testing drugs and control drugs were diluted with GAM broth to different concentrations in the test tubes, followed by addition of equal volume of diluted Bacilli (at 1:200), MIC values were read 72 hours after anaerobic incubation at 35° C.

Fusobacterium nucleatum = assay: as above; format: cell-based; settings: 11 clinical strains, GAM broth, 72 hours anaerobic incubation at 35° C.
Procedure: as §1, §2, §3

Clostridium = assay: as above; format: cell-based; settings: 6 clinical strains, GAM broth, 72 hours anaerobic incubation at 35° C.
Procedure: as §1, §2, §3

Bacteroides = assay: as above; format: cell-based; settings: 40 clinical strains, GAM broth, 72 hours anaerobic incubation at 35° C.
Procedure: as §1, §2, §3

Peptostreptococcus = assay: as above; format: cell-based; settings: 35 clinical strains, GAM broth, 72 hours anaerobic incubation at 35° C.
Procedure: as §1, §2, §3

mice [5] = assay: Hypnotic effect of intravenous injection in mice (righting reflex); format: in vivo; settings: mice, within 30 minutes
Procedure: White mice, half males and half females, fasted for eight hours. The disappearance of righting reflex in mice was observed. The number of animals who lost their righting reflex was recorded in 30 minutes after drug administration.

mice [6] = assay: Effects on spontaneous activities in mice; format: in vivo; settings: for spontaneous activity compared with the vehicle control group: recorded at 0.5, 1, 2, 3 and 4 hours
Procedure: Chlorpromazine was administered at dose of […] in the positive control group, and the same volume of propylene glycol containing 0.9% sodium chloride injection was administered in the vehicle control group. Spontaneous activity was recorded at 0.5, 1, 2, 3 and 4 hours after drug administration. The injection volume was 0.2 ml/10 g and the administration rate was 0.2 ml/10 sec.

[7] = test system: bacteroides (including Escherichia coli) infection; assay: Abdominal infection model in mice, ED50; format: in vivo, Kunming white mice; settings: death observed 7 days
Procedure: (§4) Kunming white mice, body weight of 20±2 g, half males and half females. 10 mice in each dose group with half females and half males. Abdominal infection models were prepared with the entire animal (mice) and treatments were conducted with the testing drugs. The therapeutical efficacy was observed and expressed as ED50 (half effective dose). Drugs were administered twice by oral gavage (administered immediately after infection for one and 6 hours after infection for the other one). The death status of animals was observed consecutively for seven days after infection and being treated.

[8] = test system: peptostreptococcus (including Escherichia coli); assay: Abdominal infection model in mice, ED50; format: in vivo, Kunming white mice; settings: death observed 7 days
Procedure: as §4

[9] = oral gavage twice (immediately and 6 hours after infection)

In the case of Cc1ncc([N+](=O)[O-])n1C[C@H](O)CCl [L-ornidazole, 1-(3-chloro-2-S-(−)-hydroxypropyl)-2-methyl-5-nitroimidazole], the “Number of dead animals” value (Kunming mice [1]; 655.4 mg/kg) is reported as 0, the “Number of dead animals” value (Kunming mice [1]; 819.2 mg/kg) is reported as 1 and the “Number of dead animals” value (Kunming mice [1]; 1024 mg/kg) is reported as 4. For the same molecule, the Death rate (Kunming mice [1]; 1280 mg/kg) was 80%, the “Number of dead animals” value (Kunming mice [1]; 1280 mg/kg) was 8 and the “Probability units (Y)” value (Kunming mice [1]; 1600 mg/kg) was 6.96. For the same molecule, the “duration of sleeping induced by sodium thiopental, compared with the vehicle control group” value (mice [2]; 40 mg/kg intravenous) was “did not significantly extend”, the “sleep latency induced by sodium thiopental, compared with the vehicle control group” value (mice [2]; 40 mg/kg intravenous) was “no significant reduction” and the “duration of sleeping induced by sodium thiopental, compared with the vehicle control group” value (mice [2]; 80 mg/kg intravenous) was “significantly extended”. The “sleep latency induced by sodium thiopental, compared with the vehicle control group” value (mice [2]; 80 mg/kg intravenous) was “no significant reduction”, the LD50 (Kunming mice [3]; intraperitoneal injection) was 1378 mg/kg and the Death rate (Kunming mice [3]; intraperitoneal, 1044 mg/kg) was 0%. The “Probability units (Y)” value (Kunming mice [3]; intraperitoneal, 1044 mg/kg) was 3.27, the “Number of dead animals” value (Kunming mice [3]; intraperitoneal, 1044 mg/kg) was 0 and the Death rate (Kunming mice [3]; intraperitoneal, 1228 mg/kg) was 30%. The “Probability units (Y)” value (Kunming mice [3]; intraperitoneal, 1228 mg/kg) was 4.24, the “Number of dead animals” value (Kunming mice [3]; intraperitoneal, 1228 mg/kg) was 3 and the Death rate (Kunming mice [3]; intraperitoneal, 1445 mg/kg) was 60%. For the same molecule, the “Probability units (Y)” value (Kunming mice [3]; intraperitoneal, 1445 mg/kg) was 5.20, the “Number of dead animals” value (Kunming mice [3]; intraperitoneal, 1445 mg/kg) was 6 and the Death rate (Kunming mice [3]; intraperitoneal, 1700 mg/kg) was 90%. For the same molecule, the “Probability units (Y)” value (Kunming mice [3]; intraperitoneal, 1700 mg/kg) was 6.17, the “Number of dead animals” value (Kunming mice [3]; intraperitoneal, 1700 mg/kg) was 9 and the Death rate (Kunming mice [3]; intraperitoneal, 2000 mg/kg) was 100%. For the same molecule, the “Probability units (Y)” value (Kunming mice [3]; intraperitoneal, 2000 mg/kg) was 7.13, the “Number of dead animals” value (Kunming mice [3]; intraperitoneal, 2000 mg/kg) was 10 and the LD50 (Kunming mice [3]; intravenous injection) was 332 mg/kg. For the same molecule, the Death rate (Kunming mice [3]; intravenous, 243 mg/kg) was 0%, the “Probability units (Y)” value (Kunming mice [3]; intravenous, 243 mg/kg) was 1.06 and the “Number of dead animals” value (Kunming mice [3]; intravenous, 243 mg/kg) was 0. The Death rate (Kunming mice [3]; intravenous, 270 mg/kg) was 0%, the “Probability units (Y)” value (Kunming mice [3]; intravenous, 270 mg/kg) was 3.04 and the “Number of dead animals” value (Kunming mice [3]; intravenous, 270 mg/kg) was 0. The Death rate (Kunming mice [3]; intravenous, 300 mg/kg) was 20%, the “Probability units (Y)” value (Kunming mice [3]; intravenous, 300 mg/kg) was 3.72 and the “Number of dead animals” value (Kunming mice [3]; intravenous, 300 mg/kg) was 2. The Death rate (Kunming mice [3]; intravenous, 333 mg/kg) was 30%, the “Probability units (Y)” value (Kunming mice [3]; intravenous, 333 mg/kg) was 5.05 and the “Number of dead animals” value (Kunming mice [3]; intravenous, 333 mg/kg) was 3. The Death rate (Kunming mice [3]; intravenous, 370 mg/kg) was 100%, the “Probability units (Y)” value (Kunming mice [3]; intravenous, 370 mg/kg) was 6.38 and the “Number of dead animals” value (Kunming mice [3]; intravenous, 370 mg/kg) was 10. For the same molecule, the Death rate (Kunming mice [3]; oral gavage, 655.4 mg/kg) was 0%, the “Probability units (Y)” value (Kunming mice [3]; oral gavage, 655.4 mg/kg) was 2.87 and the Death rate (Kunming mice [3]; oral gavage, 819.2 mg/kg) was 10%. The “Probability units (Y)” value (Kunming mice [3]; oral gavage, 819.2 mg/kg) was 3.86, the Death rate (Kunming mice [3]; oral gavage, 1024 mg/kg) was 40% and the “Probability units (Y)” value (Kunming mice [3]; oral gavage, 1024 mg/kg) was 4.86. The “Probability units (Y)” value (Kunming mice [3]; oral gavage, 1280 mg/kg) was 5.86, the Death rate (Kunming mice [3]; oral gavage, 1600 mg/kg) was 100% and the “Number of dead animals” value (Kunming mice [3]; oral gavage, 1600 mg/kg) was 10. For the same molecule, the LD50 (Kunming mice [3]; oral gavage) was 1069 mg/kg, the “effect on the coordination and balance (number of falling animals)” value (mice [4]; 160 mg/kg) was “no significant effect” and the “effect on the coordination and balance, compared with the vehicle control group” value (mice [4]; doses of 40 and 80 mg/kg) was “no significant effect”. For the same molecule, the MIC50 (Veillonella) was 4.0 µg/mL (≈ 18.2 µM), the MIC90 (Veillonella) was 8.0 µg/mL (≈ 36.4 µM) and the “MIC Range” value (Veillonella) was 2.0~8.0 mg/L. The MIC50 (Fusobacterium nucleatum) was 2.0 µg/mL (≈ 9.11 µM), the MIC90 (Fusobacterium nucleatum) was 16.0 µg/mL (≈ 72.9 µM) and the “MIC Range” value (Fusobacterium nucleatum) was 1.0~16.0 mg/L. For the same molecule, the MIC50 (Clostridium) was 2.0 µg/mL (≈ 9.11 µM), the MIC90 (Clostridium) was 2.0 µg/mL (≈ 9.11 µM) and the “MIC Range” value (Clostridium) was 1.0~2.0 mg/L. The MIC50 (Bacteroides) was 4.0 µg/mL (≈ 18.2 µM), the MIC90 (Bacteroides) was 8.0 µg/mL (≈ 36.4 µM) and the “MIC Range” value (Bacteroides) was 20~16.0 mg/L. The MIC50 (Peptostreptococcus) was 4.0 µg/mL (≈ 18.2 µM), the MIC90 (Peptostreptococcus) was 8.0 µg/mL (≈ 36.4 µM) and the “MIC Range” value (Peptostreptococcus) was 2.0~32.0 mg/L. For the same molecule, the “number of mice with loss in righting reflex” value (mice [5]; individual dose of 160 mg/kg intravenous) was “No loss in righting reflex”, the “loss in righting reflex” value (mice [5]; individual dose of 40 or 80 mg/kg intravenous) was “No loss in righting reflex” and the “spontaneous activity compared with the vehicle control group” value (mice [6]; 40 mg/kg intravenous) was “significant reduction in spontaneous activity was not observed”. For the same molecule, the “recovery of spontaneous activity” value (mice [6]; 80 mg/kg intravenous) was “gradually become normal after 2 hours”, the “spontaneous activity compared with the vehicle control group” value (mice [6]; 80 mg/kg intravenous) was “reduced significantly at 0.5 and 1 hour” and the “recovery of spontaneous activity” value (mice [6]; 160 mg/kg intravenous) was “gradually become normal after 3 hours”. The “spontaneous activity compared with the vehicle control group” value (mice [6]; 160 mg/kg intravenous) was “reduced significantly at 0.5, 1 and 2 hours”, the “ED50 (half effective dose)” value [7, 9] was 31.0 mg/kg and the “95% CI of ED50” value ([7]; oral gavage twice) was 43.3˜22.2 mg/kg. For the same molecule, the “ED50 (half effective dose)” value [8, 9] was 42.0 mg/kg and the “95% CI of ED50” value ([8]; oral gavage twice) was 50.9˜34.6 mg/kg.
